Laboratory results taken from patent US10233195B2, “Anti-fibrotic pyridinones” (InterMune, Inc., priority 2014, dated 2019).

Each molecule was assayed on TGF-b induced Endothelin-1 production (assay: ET-1 assay: inhibitory effect on TGF-b induced endothelin-1 production). Settings: Homo sapiens, Fibroblast; fibroblasts, stimulant (TGFb, serum, LPA etc), ET-1 in media by ELISA, 4-parameter fit.
Type: cell-based
Protocol: Assay of Inhibitory Effect on TGF-b Induced Endothelin-1 Production
Fibroblasts (primary human lung and dermal, HFL-1, 3T3 etc) are seeded in 96-well plates at ˜15000 cells/well and serum starved for 0-48 hours. After media exchange, compounds serially diluted in DMSO are added to the cells. After a brief incubation of ˜30 min, stimulants (TGFb, serum, LPA etc) are added followed by further incubation for 16-48 hours. Media is then harvested and stored frozen in plate format for later endothelin-1 (ET-1) determination by ELISA. Toxicity measurements are made using the ATPlite kit (Perkin-Elmer). ET-1 is quantified using an ELISA kit (R&D Systems). The amount of ET-1 produced in the assay wells are back-calculated using the ELISA standard. The ability of a compound to inhibit ET-1 production is typically analyzed by fitting dose-response curves to a 4-parameter logistic function to obtain an EC50 value. A measure of cytotoxicity (CC50) is likewise reported from the same experiment using the ATPlite data.
Compounds of some embodiments were prepared according to synthetic methods described herein and assay data obtained for EC50 against ET-1. The assay data obtained is presented in Table 2, in which A=less than 50 μM, B=greater than or equal to 50 μM and less than or equal to 200 μM; and C=greater than 200 μM.
`O=c1cc(OC2CCS(=O)(=O)CC2)c(-c2ccc(F)cc2)cn1-c1ccc(OC(F)(F)F)cc1` [Compound 99] was tested, and the EC50 was < 50 µM. In the case of `Cc1ccc(=S)n(-c2ccc(F)cc2)c1` [Compound 336], the EC50 is reported as > 200 µM. Work on `CCc1cc(=O)n(-c2ccc(OC(F)(F)F)cc2)cc1-c1cnn(C)c1` [Compound 235] yielded an EC50 of 50 to 200 µM. For `Cc1n[nH]c(C)c1-c1ccc(=O)n(-c2ccc(Cl)cc2)c1` [Compound 380], the EC50 was > 200 µM. For `Cn1cc(-c2cn(-c3ccc(OC(F)(F)F)cc3)c(=O)cc2Nc2ccccc2)cn1` [Compound 130], the EC50 was > 200 µM. For `O=c1ccc(-c2cccc(Cl)c2)cn1-c1ccccc1` [Compound 313], the EC50 was 50 to 200 µM. `O=c1c2ncn(Cc3ccccc3)c2c(-c2ccc(F)cc2)cn1-c1ccc(OC(F)(F)F)cc1` [Compound 54] was tested, and the EC50 was > 200 µM. `Cc1cc(=O)n(-c2ccc3c(c2)OCO3)cc1-c1ccc(F)cc1` [Compound 183] was tested, and the EC50 was > 200 µM. `Cc1cc(=O)n(-c2ccc3c(c2)OCCO3)cc1-c1ccc(F)cc1` [Compound 182] was tested, and the EC50 was > 200 µM. `O=c1ccc(-c2ccc(F)cc2)cn1Cc1ccccc1` [Compound 79] was tested, and the EC50 was < 50 µM. For `O=c1c2[nH]cnc2c(-c2cn[nH]c2)cn1-c1ccc(OC(F)(F)F)cc1` [Compound 672], the EC50 was < 50 µM. `Cc1cc(=O)n(-c2ccc3c(c2)OCO3)cc1-c1cnn(C)c1` [Compound 223] was tested, and the EC50 was > 200 µM. For `CC(=O)c1ccc(=O)n(-c2cccc(F)c2)c1` [Compound 15], the EC50 was > 200 µM. `Cc1cc(=O)n(-c2ccc(Cl)cc2)cc1-c1ccc2scnc2c1` [Compound 421] gave an EC50 of 50 to 200 µM. With `N#Cc1ccc(-n2cc(-c3cn[nH]c3)c3nccnc3c2=O)cc1` [Compound 573] the EC50 was > 200 µM. With `CN1CCN(CCOc2cc(=O)n(-c3ccc(OC(F)(F)F)cc3)cc2-c2ccc(F)cc2)CC1` [Compound 100] the EC50 was < 50 µM. `CCOc1ccc(-n2cc(-c3ccccc3)ccc2=O)c(C)c1` [Compound 298] gave an EC50 of 50 to 200 µM. For `O=c1ccc(C(F)(F)F)cn1-c1cccc(F)c1` [Compound 274], the EC50 was > 200 µM. In the case of `Cn1cc(-c2cn(-c3ccc(OC(F)(F)F)cc3)c(=O)c3c2CCN3C(=O)OC(C)(C)C)cn1` [Compound 690], the EC50 is reported as < 50 µM. With `CCOc1ccc(-n2cc(Br)ccc2=O)c(C)c1` [Compound 273] the EC50 was > 200 µM. For `Cc1cc(=O)n(-c2ccc3ocnc3c2)cc1-c1cnn(C)c1` [Compound 224], the EC50 was > 200 µM. `Cc1cc(=O)n(-c2ccc(OC(F)(F)F)cc2)cc1-c1nnnn1C` [Compound 257] was tested, and the EC50 was > 200 µM. For `Cn1cc(-c2cn(-c3ccc(OC(F)(F)F)cc3)c(=O)cc2NCc2ccc(C#N)cc2F)cn1` [Compound 527], the EC50 was < 50 µM. In the case of `N#Cc1ccc(-n2cc(-c3cn[nH]c3)c3ncccc3c2=O)cc1` [Compound 581], the EC50 is reported as > 200 µM. For `Cc1cc(=O)n(-c2ccc(OC(F)(F)F)cc2)cc1-c1ccccc1` [Compound 164], the EC50 was < 50 µM. `CCn1ccc2c(-c3cn[nH]c3)cn(-c3ccc(OC(F)(F)F)cc3)c(=O)c21` [Compound 593] was tested, and the EC50 was < 50 µM. `Cn1cc(-c2cn(-c3ccc(C#N)cc3)c(=O)c3c2ccn3C)cn1` [Compound 597] was tested, and the EC50 was > 200 µM. In the case of `Cn1cc(-c2cn(-c3ccc(OC(F)(F)F)cc3)c(=O)cc2OCCN2CCS(=O)(=O)CC2)cn1` [Compound 148], the EC50 is reported as > 200 µM. For `CCOC(=O)Nc1cc(=O)n(-c2ccc(OC(F)(F)F)cc2)cc1-c1cnn(C)c1` [Compound 137], the EC50 was > 200 µM. In the case of `CNC(=O)c1cccc(-n2cc(-c3ccc(F)cc3)c(C)cc2=O)c1` [Compound 190], the EC50 is reported as 50 to 200 µM. In the case of `O=c1ncc(-c2ccnnc2)cn1-c1ccc(OC(F)(F)F)cc1` [Compound 347], the EC50 is reported as 50 to 200 µM. With `COc1ccc(-n2cc(-c3cccc(Cl)c3)ccc2=O)cc1` [Compound 315] the EC50 was < 50 µM. For `O=c1ccc2c(n1-c1ccccc1)CCC2` [Compound 27], the EC50 was > 200 µM. For `CC(C)n1nnc2c(-c3cnn(C)c3)cn(-c3ccc(OC(F)(F)F)cc3)c(=O)c21` [Compound 676], the EC50 was < 50 µM. Molecule `Cc1cc(-c2cnn(C)c2)cn(-c2ccc(OC(F)(F)F)cc2)c1=O` [Compound 352] has an EC50 of 50 to 200 µM. For `O=c1ccc(-c2cccc(Cl)c2)cn1-c1ccccc1Cl` [Compound 322], the EC50 was < 50 µM. In the case of `CCOc1ccc(-n2cc(-c3ccc(F)cc3)ccc2=O)c(C)c1` [Compound 438], the EC50 is reported as > 200 µM. In the case of `Cn1cc(-c2cn(-c3ccc(OC(F)(F)F)cc3)c(=O)c3c2ccn3Cc2ccccc2)cn1` [Compound 596], the EC50 is reported as < 50 µM. In the case of `O=c1c2nc[nH]c2c(-c2ccc(F)cc2)cn1-c1ccc(OC(F)(F)F)cc1` [Compound 56], the EC50 is reported as > 200 µM. `COCCOc1ccc(-n2cc(-c3cnn(C)c3)c(Oc3ccccc3)cc2=O)cc1` [Compound 540] was tested, and the EC50 was < 50 µM. `CCOc1ccc(-c2c(-c3ccc(F)cc3)c(=O)c2=O)c(C)c1` [Compound 667] was tested, and the EC50 was < 50 µM. `Cc1cc(C)c(=O)n(-c2ccccc2)c1` [Compound 349] was tested, and the EC50 was > 200 µM. `O=c1cc(NCc2ccccc2)c(-c2ccc(F)cc2)cn1-c1ccc(OC(F)(F)F)cc1` [Compound 89] was tested, and the EC50 was > 200 µM. For `CCn1nc2c(-c3ccc(F)cc3)cn(-c3ccc(OC(F)(F)F)cc3)c(=O)c2n1` [Compound 680], the EC50 was > 200 µM. In the case of `Cn1cc(-c2c[nH]c(=O)c3[nH]nnc23)cn1` [Compound 623], the EC50 is reported as > 200 µM. For `COCCOc1ccc(-n2cc(-c3cnn(C)c3)c(C)cc2=O)cc1` [Compound 25], the EC50 was > 200 µM. For `Cn1cc(-c2cnc(=O)n(-c3ccccc3)c2)cn1` [Compound 355], the EC50 was > 200 µM. With `O=c1ccc(Br)cn1-c1ccc(Cl)cc1` [Compound 269] the EC50 was > 200 µM. For `Cc1cc(=O)n(-c2ccc(OC(F)(F)F)cc2)cc1-c1cccc2[nH]c(=O)oc12` [Compound 555], the EC50 was > 200 µM. For `Cc1nc2c(=O)n(-c3ccc(OC(F)(F)F)cc3)cc(-c3cn[nH]c3)c2n1C` [Compound 675], the EC50 was < 50 µM. In the case of `Cn1cc(-c2cn(-c3ccc(OC(F)(F)F)cc3)c(=O)cc2OCc2ccccc2)cn1` [Compound 143], the EC50 is reported as > 200 µM. In the case of `O=c1ccc(-c2ccccc2)cn1-c1ccc(F)cc1` [Compound 294], the EC50 is reported as 50 to 200 µM. Molecule `CCCCOC(=O)n1cc(-c2ccc(=O)n(-c3ccccc3)c2)cn1` [Compound 74] has an EC50 of 50 to 200 µM. In the case of `O=c1ccc(-c2ccccc2)cn1-c1ccncc1` [Compound 299], the EC50 is reported as > 200 µM. In the case of `CC(C)c1cc(=O)n(-c2ccc(OC(F)(F)F)cc2)cc1-c1ccc(F)cc1` [Compound 200], the EC50 is reported as 50 to 200 µM. Work on `O=c1ccc(C(F)(F)F)cn1-c1ccc(NCCN2CCN(CCO)CC2)cc1Cl` [Compound 709] yielded an EC50 of 50 to 200 µM. For `O=c1c2c(ccn2Cc2ccccc2)c(-c2ccc(F)cc2)cn1-c1ccc(OC(F)(F)F)cc1` [Compound 392], the EC50 was > 200 µM. `CCCNC(=O)c1cc(=O)n(-c2ccc(OC(F)(F)F)cc2)cc1-c1cnn(C)c1` [Compound 159] was tested, and the EC50 was > 200 µM. For `O=c1ccc(-c2ccccc2)cn1-c1ccccc1Cl` [Compound 302], the EC50 was 50 to 200 µM. In the case of `Cc1cc(=O)n(-c2cccc3c2OCO3)cc1-c1cnn(C)c1` [Compound 232], the EC50 is reported as > 200 µM. With `CCOc1ccc(-n2cc(-c3cnn(C)c3)c(NCc3ccncc3)cc2=O)c(C)c1` [Compound 700] the EC50 was 50 to 200 µM. With `Cn1cc(-c2cn(-c3ccc(OC(F)(F)F)cc3)c(=O)c3ncn(Cc4ccccc4)c23)cn1` [Compound 55] the EC50 was > 200 µM. In the case of `CC(C)Oc1ccc(-n2cc(Br)ccc2=O)cc1` [Compound 267], the EC50 is reported as > 200 µM. `O=c1c2nsnc2c(-c2ccc(F)cc2)cn1-c1ccc(OC(F)(F)F)cc1` [Compound 40] was tested, and the EC50 was > 200 µM.
